Results reported in ChEMBL document CHEMBL1128815, “Uracil-based angiotensin II receptor antagonists” (Bioorg Med Chem Lett, 1995).

Assays:
[1] = target: T1, Type-1 angiotensin II receptor (Bos taurus, UniProt P25104); experiment: Tested for binding affinity against angiotensin II receptor in bovine adrenal cortex; type: tissue-based
T1 sequence (P25104 whole entry): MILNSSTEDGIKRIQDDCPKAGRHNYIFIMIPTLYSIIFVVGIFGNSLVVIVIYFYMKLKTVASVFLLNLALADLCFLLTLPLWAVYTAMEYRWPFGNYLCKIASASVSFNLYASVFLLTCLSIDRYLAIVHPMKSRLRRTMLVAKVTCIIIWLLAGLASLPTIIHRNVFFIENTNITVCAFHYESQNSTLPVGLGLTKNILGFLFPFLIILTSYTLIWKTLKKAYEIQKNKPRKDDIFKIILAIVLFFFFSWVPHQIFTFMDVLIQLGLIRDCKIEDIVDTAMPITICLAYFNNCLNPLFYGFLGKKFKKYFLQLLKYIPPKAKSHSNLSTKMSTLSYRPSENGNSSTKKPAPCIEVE

[2] = target: T2, Type-1 angiotensin II receptor B (Rattus norvegicus, UniProt P29089); experiment: Tested for binding affinity against angiotensin II receptor in rat adrenal cortex; type: tissue-based
T2 sequence (P29089 whole entry): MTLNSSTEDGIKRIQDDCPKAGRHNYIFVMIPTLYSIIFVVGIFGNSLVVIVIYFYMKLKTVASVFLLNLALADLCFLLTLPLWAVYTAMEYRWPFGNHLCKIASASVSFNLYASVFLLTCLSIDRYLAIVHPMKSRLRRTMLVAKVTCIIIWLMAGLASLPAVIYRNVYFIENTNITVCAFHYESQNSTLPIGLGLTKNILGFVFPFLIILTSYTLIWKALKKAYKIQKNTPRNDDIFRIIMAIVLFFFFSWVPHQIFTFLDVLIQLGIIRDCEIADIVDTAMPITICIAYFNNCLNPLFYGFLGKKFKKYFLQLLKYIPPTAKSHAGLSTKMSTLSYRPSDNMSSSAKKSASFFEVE

IC50 [1] | IC50 [2] | Compound
55 nM | 17 nM | CCCc1cc(=O)n(C)c(=O)n1Cc1ccc(-c2ccccc2-c2nn[nH]n2)cc1
44 nM | 4.5 nM | CCCCc1cc(=O)n(C)c(=O)n1Cc1ccc(-c2ccccc2-c2nn[nH]n2)cc1
62 nM | 6.2 nM | CCCc1cc2ncnn2c(=O)n1Cc1ccc(-c2ccccc2-c2nnn[nH]2)cc1
40 nM | 3.4 nM | CCCc1cc(=O)n(CCNC(C)=O)c(=O)n1Cc1ccc(-c2ccccc2-c2nnn[nH]2)cc1
100 nM | 4.3 nM | CCCc1cc(=O)[nH]c(=O)n1Cc1ccc(-c2ccccc2-c2nn[nH]n2)cc1
160 nM |  | CCCCc1nc(Cl)c(CO)n1Cc1ccc(-c2ccccc2-c2nn[nH]n2)cc1 [LOSARTAN]
20 nM | 2.3 nM | CCCc1cc(=O)n(Cc2ccccc2C(=O)OC)c(=O)n1Cc1ccc(-c2ccccc2-c2nnn[nH]2)cc1
2400 nM |  | Cn1c(=O)cc(C2CC2)n(Cc2ccc(-c3ccccc3-c3nn[nH]n3)cc2)c1=O
25 nM |  | CCCc1cc(=O)n(Cc2ccccc2)c(=O)n1Cc1ccc(-c2ccccc2-c2nn[nH]n2)cc1
27 nM | 2.4 nM | CCCCc1cc(=O)n(Cc2ccccc2C(=O)OC)c(=O)n1Cc1ccc(-c2ccccc2-c2nnn[nH]2)cc1
23 nM | 1.4 nM | CCCc1cc(=O)n(CCNC(=O)NC2CCCCC2)c(=O)n1Cc1ccc(-c2ccccc2-c2nnn[nH]2)cc1
6600 nM |  | CCCc1c(C)c(=O)n(C)c(=O)n1Cc1ccc(-c2ccccc2-c2nnn[nH]2)cc1
16 nM |  | CCCCn1c(=O)cc(CCC)n(Cc2ccc(-c3ccccc3-c3nn[nH]n3)cc2)c1=O
520 nM | 83 nM | CCCCc1cc(=O)n2nc(-c3ccccc3)nc2n1Cc1ccc(-c2ccccc2-c2nn[nH]n2)cc1
1000 nM |  | CCc1cc(=O)n(C)c(=O)n1Cc1ccc(-c2ccccc2-c2nnn[nH]2)cc1
34 nM | 3.3 nM | C=CCn1c(=O)cc(CCC)n(Cc2ccc(-c3ccccc3-c3nnn[nH]3)cc2)c1=O
9.3 nM | 0.65 nM | CCCc1cc(=O)n(CC(=O)N(C)C)c(=O)n1Cc1ccc(-c2ccccc2-c2nn[nH]n2)cc1
